How the values were obtained:
alcohol-preferring rats = experiment: Ethanol consumption in alcohol-preferring rats; format: in vivo, rat; conditions: for reduction of ethanol consumption: p<0.05
Experimental: A within-subject design was used where 2-(phosphonomethyl)pentanedioic acid treatments were tested once per week. Baseline ethanol drinking consisted of the mean of the 3 days prior to testing in which saline injections were given. […] 24 hour water and daily body weights were recorded to assess non-specific drug effects. Results were analyzed using paired t-tests with baseline and test day values serving as the independent variables. Ethanol intake was recorded as amount of solution consumed (mls).

Sprague-Dawley rats [1] = experiment: Brain injury following MCAO in Sprague-Dawley rats; format: in vivo, rat; conditions: for mean total brain infarct volume: then 20 mg/kg/hr IV 4 hours
extracellular glutamate = experiment: Stroke-induced rise in brain glutamate levels (microdialysis); format: in vivo, Sprague Dawley rats; conditions: 100 mg/kg IP then 20 mg/kg/hr IV
male Long-Evans rats = experiment: Nicotine self-administration in male Long-Evans rats; format: in vivo, rat; conditions: 200 mg/kg
Experimental: Male Long-Evans rats were trained to self-administer nicotine on a fixed ratio schedule of reinforcement, as described by Corrigall et al., Psychopharmacology, Vol. 104, No. 2, pp. 171-176 (1991) and Corrigall et al., Psychopharmacology, Vol. 107, Nos. 2-3, pp. 285-289 (1992). In brief, male Long-Evans rats were food deprived for a short period of time (24-48 hours) and trained to press a lever in an operant responding chamber on an FR-1 schedule of food reinforcement. Once trained, each rat was surgically prepared with a chronic intravenous catheter implanted into the jugular vein. The rats were allowed 1 week to recover from surgery.
After 1 week, nicotine self-administration studies were initiated on an FR-1 with a 60 second signaled time-out following each infusion. During time-out, responding on the lever had no scheduled consequence. Nicotine self-administration sessions were 60 minutes in duration. Each nicotine infusion contained 30 μg of nicotine/kg rat and were delivered in a volume of 54 μl over an infusion duration of 0.3 seconds. […] Food intake was monitored during the nicotine self-administration sessions to assess non-specific drug effects.

dopaminergic neurons = experiment: Parkinson's Disease model: MPTP lesioned mice; format: in vivo, CD1 mice; conditions: 10 mg/kg, p<0.001
Experimental: To examine the effect of NAALADase inhibitors on Parkinson's Disease in vivo, MPTP lesioned mice were treated with 2-(phosphonomethyl)pentanedioicacid or a vehicle.
MPTP lesioning of dopaminergic neurons in mice was used as an animal model of Parkinson's Disease, as described by Steiner, Proc. Natl. Acad. Sci., Vol. 94, pp. 2019-2024 (March 1997). In brief, four week old male CD1 white mice were dosed IP with 30 mg/kg of MPTP for 5 days. […] At 18 days following MPTP treatment, the mice were sacrificed and their brains were removed and sectioned. Immunostaining was performed on saggital and coronal brain sections using anti-tyrosine hydroxylase (TH) antibodies to quantitate survival and recovery of dopaminergic neurons.

LNCaP tumors [2] = experiment: In vivo LNCaP tumor model, intratumoral Compound 3; set-up: species or system ncr nude male mice
Experimental: Ncr nude male mice, age 5 to 6 weeks, were injected in the right flank with 10^7 LNCaP cells in Matrigel™ (0.1 ml total injection volume). When the tumors reached a predetermined size (50 to 60 mm^3), mice were randomly placed into treatment groups of 6 to 8 mice each. […] Controls received 50 μl of 50 mM HEPES intratumorally daily. Tumors were measured twice a week.
(§1) Response to treatment was monitored in two ways. First, mean tumor volume for each group was presented as tumor:control ratio (% T/C) and these values were compared at one point in time. Second, tumor volume versus time was monitored.

Dunning G tumors = experiment: In vivo Dunning G tumor model, subcutaneous Compound 3; set-up: species or system male Copenhagen syngenic rats
Experimental: Male Copenhagen syngenic rats, age 8 to 10 weeks, were injected in both flanks with 10^7 Dunning G cells. […] Controls received 50 mM HEPES s.c. daily. Tumors were measured twice a week.
as §1

Sprague-Dawley rats [3] = experiment: Dynorphin-induced spinal cord injury; format: in vivo, rat
Experimental: Dynorphin-induced spinal cord injury was performed according to Long et al., JPET, Vol. 269, No. 1, pp. 358-366 (1993). In brief, spinal subarachnoid injections were delivered using 30-gauge needles inserted between the L4-L5 vertebrae of male Sprague-Dawley rats (300-350 g). The rats were anesthetized with halothane and dorsal midline incisions were made immediately rostral to the pelvic girdle. By using the vertebral processes as guides, the needle was advanced to pass into the subarachnoid space surrounding the cauda equina. Correct needle placement was verified by CSF flow from the needle after its insertion. […] After injections, the incisions were treated with the topical antibacterial furazolidone and closed with wound clips. Rapid recovery from the halothane anesthesia enabled neurological evaluations to be made within 5 minutes of injections.
Neurological function was evaluated using a 5-point ordinal scale, with scores being assigned as follows: 4=normal motor function; 3=mild paraparesis, with the ability to support weight and walk with impairment; 2=paraparesis, with the ability to make walking movements without fully supporting weight; 1=severe paraparesis, in which rats could make limited hind limb movement, but not walking movement; and 0=flaccid paralysis, with complete absence of any hind limb movement. Neurological evaluations were made 24 hours after dynorphin A injection.
Differences in the neurological scores among treatment groups were determined by means of the Mann-Whitney U test or the Kruskal-Wallis test.

LNCaP tumors [4] = experiment: In vivo LNCaP tumor model, subcutaneous Compound 3; set-up: species or system ncr nude male mice
Experimental: Ncr nude male mice, age 5 to 6 weeks, were injected in the right flank with 5×10^6 LNCaP cells in Matrigel™ (0.1 ml total injection volume). […] Controls received 50 mM HEPES s.c. daily. Once tumors were palpable they were measured twice a week.
as §1

With `O=C(O)CCC(CP(=O)(O)O)C(=O)O` (stereo not drawn) [Compound 3, 2-(phosphonomethyl)pentanedioic acid] the “reduction of ethanol consumption” value (alcohol-preferring rats; 50 mg/kg IP, 1 hour access) was “approximately 25%”, the ethanol intake (alcohol-preferring rats; 50 mg/kg, saline baseline 8.1±0.6) was 6.2±0.9 mls and the “reduction of ethanol consumption” value (alcohol-preferring rats; 100 mg/kg IP, 1 hour access) was “approximately 25%”. The ethanol intake (alcohol-preferring rats; 100 mg/kg, saline baseline 7.8±0.8) was 5.8±0.7 mls, the “effect on ethanol consumption (in words)” value (alcohol-preferring rats; 200 mg/kg IP, 1 hour access) was “no effect” and the ethanol intake (alcohol-preferring rats; 200 mg/kg, saline baseline 8.9±0.7) was 8±0.5 mls. The “body weights and 24 hour water intakes (in words)” value (alcohol-preferring rats; 50, 100, 200 mg/kg) was “not altered at any of the 3 doses”, the “mean total brain infarct volume” value (Sprague-Dawley rats [1]; 100 mg/kg IP 20 minute pre-treatment, p=0.003 vs. vehicle (293±26)) was 122±26 mm^3 and the “mean total brain infarct volume” value (Sprague-Dawley rats [1]; 100 mg/kg IP 30 minute post-treatment, p=0.2 vs. vehicle (293±26)) was 208±40 mm^3. The “mean total brain infarct volume” value (Sprague-Dawley rats [1]; 100 mg/kg IP 60 minute post-treatment, p=0.015 vs. vehicle (293±26)) was 125±57 mm^3, the “mean total brain infarct volume” value (Sprague-Dawley rats [1]; 100 mg/kg IP 120 minute post-treatment, p=0.005 vs. vehicle (293±26)) was 133±35 mm^3 and the “neuroprotection in rat MCAO model (in words)” value (Sprague-Dawley rats [1]; up to 2 hours post-occlusion) was “neuroprotective in rat MCAO model of stroke when administered up to 2 hours post-occlusion”. The “stroke-induced glutamate changes, parietal cortex (in words)” value (extracellular glutamate; p<0.01) was “completely prevented concurrent glutamate changes in the parietal cortex”, the “stroke-induced extracellular glutamate increase, striatum (in words)” value (extracellular glutamate; p<0.05) was “significantly attenuated stroke-induced extracellular glutamate increases in the striatum” and the “glutamate, frontal cortex (in words)” value (extracellular glutamate; vs vehicle) was “no subsequent difference between the vehicle and 2-(phosphonomethyl)pentanedioic acid treated groups”. For the same compound, the “cumulative food intake (in words)” value (male Long-Evans rats; 1 hour) was “decreased”, the nicotine self-administration (male Long-Evans rats; 1 hour access period, reduced from 23) was 5 infusions and the “recovery of TH-stained dopaminergic neurons (in words)” value (dopaminergic neurons) was “significant recovery of TH-stained dopaminergic neurons”. For the same compound, the “Optimal % T/C” value (LNCaP tumors [2]; 0.025 μg/day intratumoral) was 42 % T/C, the Regressions (LNCaP tumors [2]; 0.025 μg/day intratumoral) was 1/7 and the “Tumor volume after 42 days of treatment” value (LNCaP tumors [2]; 0.025 μg/day, control 807.3±197.3) was 465.7±176 mm^3. The “Optimal % T/C” value (LNCaP tumors [2]; 0.25 μg/day intratumoral) was 51 % T/C, the Regressions (LNCaP tumors [2]; 0.25 μg/day intratumoral) was 1/7 and the “Optimal % T/C” value (LNCaP tumors [2]; 2.5 μg/day intratumoral) was 45 % T/C. The Regressions (LNCaP tumors [2]; 2.5 μg/day intratumoral) was 0/7, the “Optimal % T/C” value (LNCaP tumors [2]; 25.0 μg/day intratumoral) was 76 % T/C and the Regressions (LNCaP tumors [2]; 25.0 μg/day intratumoral) was 0/7. For the same compound, the “tumor growth (in words)” value (LNCaP tumors [2]; 0.025, 0.25 and 2.5 μg/day intratumoral) was “slowed tumor growth substantially”, the “effect on tumor growth (in words)” value (Dunning G tumors; 1 mg/kg s.c.) was “no effect on tumor growth” and the “effect on tumor growth (in words)” value (Dunning G tumors; 3 mg/kg s.c.) was “no effect on tumor growth”. The “tumor size, % of controls” value (Dunning G tumors; 10 mg/kg s.c., p=0.03) was 38 % of controls, the “tumor size, % of controls” value (Dunning G tumors; 30 mg/kg s.c.) was 22 % of controls and the “motor scores (in words)” value (Sprague-Dawley rats [3]; 4 μmoles with dynorphin A, 24 hours, p<0.05 vs vehicle) was “significant improvement in motor scores”. For the same compound, the rats ambulatory (Sprague-Dawley rats [3]; 24 hours post-injection, 15 rats, vehicle 14%, p<0.05) was 73%, the “protection against dynorphin-induced spinal cord injury (in words)” value (Sprague-Dawley rats [3]; rat, in vivo) was “provides effective protection against dynorphin-induced spinal cord injury” and the “effect on tumor growth (in words)” value (LNCaP tumors [4]; 1 mg/kg s.c.) was “no effect on tumor growth”. The “effect on tumor growth (in words)” value (LNCaP tumors [4]; 3 mg/kg s.c.) was “no effect on tumor growth”, the “tumor growth, % of controls” value (LNCaP tumors [4]; 10 mg/kg s.c., day 86, p=0.006) was 24 % of controls and the “effect on tumor growth (in words)” value (LNCaP tumors [4]; 30 mg/kg s.c.) was “no effect on tumor growth”.

Source: patent publication US6121252A, “Phosphinic acid derivatives” (priority 1998, dated 2000)
